Species on record: Rattus norvegicus
Assay: DrugMatrix - Regimen: Daily Repeat
Format: toxicity, organism-based, Sprague-Dawley
Design: regimen Daily Repeat, gender Male, age 6-8 weeks
Settings: in vivo, ip, 0 mg/kg, route intraperitoneal, dose level Control, vehicle 100 % SALINE; for ABSOLUTE BASOPHIL / ABSOLUTE EOSINOPHIL / ABSOLUTE LYMPHOCYTE / ABSOLUTE MONOCYTE / ABSOLUTE SEGMENTED NEUTROPHIL / BASOPHIL / EOSINOPHIL / ERYTHROCYTE COUNT / HEMATOCRIT / HEMOGLOBIN / LEUKOCYTE COUNT / LYMPHOCYTE / MEAN CORPUSCULAR HEMOGLOBIN / MEAN CORPUSCULAR HEMOGLOBIN CONCENTRATION / MEAN CORPUSCULAR VOLUME / MONOCYTE / NEUTROPHIL / NUCLEATED RED BLOOD CELLS / PLATELET COUNT: tissue Blood; for ALANINE AMINOTRANSFERASE / ALKALINE PHOSPHATASE / ASPARTATE AMINOTRANSFERASE / BLOOD UREA NITROGEN / CARBON DIOXIDE / CHLORIDE / CHOLESTEROL / CREATININE / GLUCOSE / LACTATE DEHYDROGENASE / LIPASE / PHOSPHORUS / POTASSIUM / SODIUM / TOTAL BILIRUBIN / TOTAL PROTEIN / URIC ACID: tissue Plasma

SMILES: CC[C@H]1CN2CCc3cc(OC)c(OC)cc3[C@@H]2C[C@@H]1C[C@H]1NCCc2cc(OC)c(OC)cc21 [EMETINE]
- ABSOLUTE BASOPHIL (72 h, time 3 day): 0 CELLS/uL
- ABSOLUTE EOSINOPHIL (72 h, time 3 day): 109.67 CELLS/uL
- ABSOLUTE LYMPHOCYTE (72 h, time 3 day): 11168.33 CELLS/uL
- ABSOLUTE MONOCYTE (72 h, time 3 day): 226.17 CELLS/uL
- ABSOLUTE SEGMENTED NEUTROPHIL (72 h, time 3 day): 695.83 CELLS/uL
- BASOPHIL (72 h, time 3 day): 0%
- EOSINOPHIL (72 h, time 3 day): 0.83%
- ERYTHROCYTE COUNT (72 h, time 3 day): 6.2 x10E6/uL
- HEMATOCRIT (72 h, time 3 day): 37.68%
- HEMOGLOBIN (72 h, time 3 day): 13.67 G/DL
- LEUKOCYTE COUNT (72 h, time 3 day): 12.2 x10E3/uL
- LYMPHOCYTE (72 h, time 3 day): 91.83%
- MEAN CORPUSCULAR HEMOGLOBIN (72 h, time 3 day): 22.08 pg
- MEAN CORPUSCULAR HEMOGLOBIN CONCENTRATION (72 h, time 3 day): 36.3 G/DL
- MEAN CORPUSCULAR VOLUME (72 h, time 3 day): 60.77 fL
- MONOCYTE (72 h, time 3 day): 1.83%
- NEUTROPHIL (72 h, time 3 day): 5.5%
- NUCLEATED RED BLOOD CELLS (72 h, time 3 day): 0 /100WBC
- PLATELET COUNT (72 h, time 3 day): 755.67 x10E3/uL
- ALANINE AMINOTRANSFERASE (72 h, time 3 day): 60.83 u/L
- ALKALINE PHOSPHATASE (72 h, time 3 day): 392.5 u/L
- ASPARTATE AMINOTRANSFERASE (72 h, time 3 day): 97 u/L
- BLOOD UREA NITROGEN (72 h, time 3 day): 16.5 mg/dL
- CARBON DIOXIDE (72 h, time 3 day): 29.83 mmol/L
- CHLORIDE (72 h, time 3 day): 101.83 MEQ/L
- CHOLESTEROL (72 h, time 3 day): 72.5 mg/dL
- CREATININE (72 h, time 3 day): 0.28 mg/dL
- GLUCOSE (72 h, time 3 day): 195.33 mg/dL
- LACTATE DEHYDROGENASE (72 h, time 3 day): 240.33 u/L
- LIPASE (72 h, time 3 day): 9.67 u/L
- PHOSPHORUS (72 h, time 3 day): 12.47 mg/dL
- POTASSIUM (72 h, time 3 day): 6.15 MEQ/L
- SODIUM (72 h, time 3 day): 145.38 MEQ/L
- TOTAL BILIRUBIN (72 h, time 3 day): 0.17 mg/dL
- TOTAL PROTEIN (72 h, time 3 day): 6.7 G/DL
- URIC ACID (72 h, time 3 day): 2.42 mg/dL
- ABSOLUTE BASOPHIL (120 h, time 5 day): 0 CELLS/uL
- ABSOLUTE EOSINOPHIL (120 h, time 5 day): 50 CELLS/uL
- ABSOLUTE LYMPHOCYTE (120 h, time 5 day): 12777 CELLS/uL
- ABSOLUTE MONOCYTE (120 h, time 5 day): 280.67 CELLS/uL
- ABSOLUTE SEGMENTED NEUTROPHIL (120 h, time 5 day): 875.67 CELLS/uL
- BASOPHIL (120 h, time 5 day): 0%
- EOSINOPHIL (120 h, time 5 day): 0.5%
- ERYTHROCYTE COUNT (120 h, time 5 day): 6.42 x10E6/uL
- HEMATOCRIT (120 h, time 5 day): 39.13%
- HEMOGLOBIN (120 h, time 5 day): 14.17 G/DL
- LEUKOCYTE COUNT (120 h, time 5 day): 13.98 x10E3/uL
- LYMPHOCYTE (120 h, time 5 day): 90.83%
- MEAN CORPUSCULAR HEMOGLOBIN (120 h, time 5 day): 22.1 pg
- MEAN CORPUSCULAR HEMOGLOBIN CONCENTRATION (120 h, time 5 day): 36.2 G/DL
- MEAN CORPUSCULAR VOLUME (120 h, time 5 day): 61.07 fL
- MONOCYTE (120 h, time 5 day): 2%
- NEUTROPHIL (120 h, time 5 day): 6.67%
- NUCLEATED RED BLOOD CELLS (120 h, time 5 day): 0 /100WBC
- PLATELET COUNT (120 h, time 5 day): 838.67 x10E3/uL
- ALANINE AMINOTRANSFERASE (120 h, time 5 day): 56.5 u/L
- ALKALINE PHOSPHATASE (120 h, time 5 day): 316.5 u/L
- ASPARTATE AMINOTRANSFERASE (120 h, time 5 day): 131 u/L
- BLOOD UREA NITROGEN (120 h, time 5 day): 14.33 mg/dL
- CARBON DIOXIDE (120 h, time 5 day): 29.83 mmol/L
- CHLORIDE (120 h, time 5 day): 100.5 MEQ/L
- CHOLESTEROL (120 h, time 5 day): 65.83 mg/dL
- CREATININE (120 h, time 5 day): 0.23 mg/dL
- GLUCOSE (120 h, time 5 day): 268.83 mg/dL
- LACTATE DEHYDROGENASE (120 h, time 5 day): 343 u/L
- LIPASE (120 h, time 5 day): 9.33 u/L
- PHOSPHORUS (120 h, time 5 day): 13.95 mg/dL
- POTASSIUM (120 h, time 5 day): 5.37 MEQ/L
- SODIUM (120 h, time 5 day): 146.53 MEQ/L
- TOTAL BILIRUBIN (120 h, time 5 day): 0.12 mg/dL
- TOTAL PROTEIN (120 h, time 5 day): 6.37 G/DL
- URIC ACID (120 h, time 5 day): 1.97 mg/dL
- ABSOLUTE BASOPHIL ([…], time 14 day): 0 CELLS/uL
- ABSOLUTE EOSINOPHIL ([…], time 14 day): 111.67 CELLS/uL
- ABSOLUTE LYMPHOCYTE ([…], time 14 day): 12370.33 CELLS/uL
- ABSOLUTE MONOCYTE ([…], time 14 day): 653.33 CELLS/uL
- ABSOLUTE SEGMENTED NEUTROPHIL ([…], time 14 day): 1414.67 CELLS/uL
- BASOPHIL ([…], time 14 day): 0%
- EOSINOPHIL ([…], time 14 day): 0.67%
- ERYTHROCYTE COUNT ([…], time 14 day): 6.03 x10E6/uL
- HEMATOCRIT ([…], time 14 day): 36.65%
- HEMOGLOBIN ([…], time 14 day): 13.4 G/DL
- LEUKOCYTE COUNT ([…], time 14 day): 14.55 x10E3/uL
- LYMPHOCYTE ([…], time 14 day): 85.33%
- MEAN CORPUSCULAR HEMOGLOBIN ([…], time 14 day): 22.27 pg
- MEAN CORPUSCULAR HEMOGLOBIN CONCENTRATION ([…], time 14 day): 36.58 G/DL
- MEAN CORPUSCULAR VOLUME ([…], time 14 day): 60.85 fL
- MONOCYTE ([…], time 14 day): 4.5%
- NEUTROPHIL ([…], time 14 day): 9.5%
- NUCLEATED RED BLOOD CELLS ([…], time 14 day): 0 /100WBC
- PLATELET COUNT ([…], time 14 day): 942 x10E3/uL
- ALANINE AMINOTRANSFERASE ([…], time 14 day): 53.33 u/L
- ALKALINE PHOSPHATASE ([…], time 14 day): 293.67 u/L
- ASPARTATE AMINOTRANSFERASE ([…], time 14 day): 96.83 u/L
- BLOOD UREA NITROGEN ([…], time 14 day): 15.5 mg/dL
- CARBON DIOXIDE ([…], time 14 day): 32.17 mmol/L
- CHLORIDE ([…], time 14 day): 101.33 MEQ/L
- CHOLESTEROL ([…], time 14 day): 64 mg/dL
- CREATININE ([…], time 14 day): 0.25 mg/dL
- GLUCOSE ([…], time 14 day): 178.67 mg/dL
- LACTATE DEHYDROGENASE ([…], time 14 day): 179.5 u/L
- LIPASE ([…], time 14 day): 9.17 u/L
- PHOSPHORUS ([…], time 14 day): 10.88 mg/dL
- POTASSIUM ([…], time 14 day): 5.91 MEQ/L
- SODIUM ([…], time 14 day): 145.68 MEQ/L
- TOTAL BILIRUBIN ([…], time 14 day): 0.2 mg/dL
- TOTAL PROTEIN ([…], time 14 day): 6.38 G/DL
- URIC ACID ([…], time 14 day): 1.12 mg/dL
